Experimental data published in patent publication US8822523B2, “Carboxamide microbiocides” (Syngenta Participations AG, priority 2011, dated 2014).

What was measured:
Puccinia recondita [1] = assay: Puccinia recondita / wheat / leaf disc preventative (brown rust); assay type: in vivo; conditions: foliar, 200 ppm active ingredient, wheat leaf segments, preventive, assessed 8 dpi, read-out: fungal growth inhibition
Description: Puccinia recondita/Wheat/Leaf Disc Preventative (Brown Rust)
Wheat leaf segments were placed on agar in multiwell plates (24-well format) and sprayed with test solutions (200 ppm active ingredient). After drying, the leaf disks were inoculated with a spore suspension of the fungus. After appropriate incubation the activity of a compound was assessed 8 dpi (days after inoculation) as preventive fungicidal activity. The activity of a compound was expressed as fungal growth inhibition (0=no growth inhibition, ratings of 80% to 99% mean good to very good inhibition, 100%=complete inhibition).

Puccinia recondita [2] = assay: Puccinia recondita / wheat / leaf disc curative (brown rust); assay type: in vivo; conditions: foliar, 24 h, 200 ppm active ingredient applied one day after inoculation, wheat leaf segments, assessed 8 dpi, read-out: fungal growth inhibition
Description: Puccinia recondita/Wheat/Leaf Disc Curative (Brown Rust)
Wheat leaf segments were placed on agar in multiwell plates (24-well format). The leaf disks were then inoculated with a spore suspension of the fungus One day after inoculation the test solution was applied (200 ppm active ingredient). After appropriate incubation the activity of a compound was assessed 8 dpi (days after inoculation) as curative fungicidal activity. The activity of a compound was expressed as fungal growth inhibition (0=no growth inhibition, ratings of 80% to 99% mean good to very good inhibition, 100%=complete inhibition).

[3] = tested on: Mycosphaerella arachidis (Cercospora arachidicola); assay: Mycosphaerella arachidis (Cercospora arachidicola) / liquid culture (early leaf spot); assay type: cell-based; conditions: 200 ppm active ingredient, PDB potato dextrose broth, 24° C., photometrically after 6-7 days, read-out: fungal growth inhibition
Description: Mycosphaerella arachidis (Cercospora arachidicola)/Liquid Culture (Early Leaf Spot)
(§1) Conidia of the fungus from cryogenic storage were directly mixed into nutrient broth (PDB potato dextrose broth). After placing a (DMSO) solution of the test compounds (200 ppm active ingredient) into a microtiter plate (96-well format) the nutrient broth containing the fungal spores was added. The test plates were incubated at 24° C. and the inhibition of growth was measured photometrically after 6-7 days. The activity of a compound was expressed as fungal growth inhibition (0=no growth inhibition, ratings of 80% to 99% mean good to very good inhibition, 100%=complete inhibition).

[4] = tested on: Mycosphaerella graminicola (Septoria tritici); assay: Mycosphaerella graminicola (Septoria tritici) / liquid culture (Septoria blotch); assay type: cell-based; conditions: Zymoseptoria tritici, 96 h; 200 ppm active ingredient, PDB potato dextrose broth, 24° C., photometrically after 4 days; read-out: fungal growth inhibition
Description: Mycosphaerella graminicola (Septoria tritici)/Liquid Culture (Septoria blotch)
as §1, with “4” for “6-7”

Measured: inhibition at 200 ppm

Cn1cc(C(=O)NOCC2CCCCc3cc(C#CC(C)(C)C)sc32)c(C(F)F)n1 (stereo not shown) [Compound 2.47, 3-Difluoromethyl-1-methyl-1H-pyrazole-4-carboxylic acid [2-(3,3-dimethylbut-1-ynyl)-5,6,7,8-tetrahydro-4H-cyclohepta[b]thiophen-8-yl]methoxy amide]
≥ 80%: all assays above
